Source: US7211434B2, “Primitive neural stem cells and method for differentiation of stem cells to neural cells” (priority 2000, dated 2007)

Assays:
Format in all cases: cell-based, mouse
ES cells = test: Primary neural sphere colony formation from ES cells in serum-free low-density culture, 7 days; conditions: for primary colony formation, factor alone: ES cells at relatively low cell densities, serum-free, 7 days in vitro
Protocol: For passaging ES cells, cultures were disaggregated with 0.05% trypsin dissolved in Tris-saline/EDTA for 5–10 minutes, mechanically dissociated, centrifuged and resuspended in culture medium.
Passaged ES cells were washed (2 times), centrifuged and resuspended in chemically defined serum-free media (Reynolds et al., 1992; Reynolds & Weiss, 1996) composed of a 1:1 mixture of Dulbecco's modified Eagle's medium (DMEM GIBCO) and F-12 nutrient (GIBCO) including 0.6% glucose (Sigma), 2 mM glutamine (GIBCO), 3 mM sodium bicarbonate (Sigma), and 5 mM HEPFS buffer (Sigma). A defined hormone and salt mixture (Sigma) that included insulin (25 (g/ml), transferrin (100 (g/ml), progestrone (20 nM), putrescine (60 (M), and selenium chloride (30 nM) was used instead of serum. ES cells were plated at various cell densities in 24-well culture plates (Nunclon) in the presence of either LIF (1000 U/ml), LIF+FGF2 (10 ng/ml; Upstate Biotech or Sigma) and 2 (g/ml heparin (Sigma), or in the absence of any exogenous growth factors. For short term (4–24 hours) neural differentiation, ES cells were plated in identical culture conditions in 24-well culture plates (Nunclon) that were precoated with poly-L-ornithine (15 μg/ml, Gibco).
Limiting dilution analysis was performed as previously described (Bellows and Aubin, 1989; Tropepe et al., 1999). ES cells were plated in 24-well plates containing LIF (1000 U/ml). Cell numbers were adjusted to give a starting concentration of 5000 cells/ml from which serial dilutions were made. Final cell dilutions ranged from 1000 cells per well to 1 cell per well in 0.5 ml aliquots. Cultures were left undisturbed for 7 days after which time the fraction of wells not containing sphere colonies for each cell plating density was calculated and those points were plotted against the number of cells plated per well. The number of cells required to form one sphere colony, which reflected the proportion of neural stem cells in the entire population, was then determined from the point at which the regression line crossed the 0.37 level (37%). […]

[1] = tested on: ES-derived neural sphere colony cells; test: Subcloning of single ES-derived sphere colonies (secondary colony formation, self-renewal); conditions: subcloned single primary colonies; factor alone
Protocol: Self-renewal of primary colony-formin) ES cells was assessed as previously described (Tropepe et al., 1999). Single sphere colonies were isolated, mechanically dissociated into a single cell suspension in 0.2 ml of serum-free media containing various combinations of LIF (1000 U/ml), […] (10 ng/ml), heparin (2 (g/ml), EGF (20 ng/ml; Upstate Biotech) or B27 supplement (1X) and cultured in 96-well (Nunclon) plates. Secondary sphere colonies were quantified after 7–10 days. A similar procedure was used for repeated passaging experiments. Cell viability after a 7-day culture period (sphere colony assay) or after 4–24 hours (short-term ES differentiation assay) was determined using trypan blue exclusion (1:2 dilution of 0.4% trypan blue; Gibco).

[2] = tested on: neural stem cells from the E9.5 forebrain; test: Sphere colony formation from E9.5 forebrain neural stem cells
Protocol: Pregnant CD1 mice (Charles River, Quebec) of gestational age (9.5 (E9.5) or E11.5 (see below) were killed via cervical dislocation and embryos were removed as previously described (Chiasson et al., 1999; Tropepe et al., 1999). Dissected germinal zone from the E9.5 telencephalon was transferred to serum-free media and mechanically dissociated into a cell suspension with a fire-polished Pasteur pipette. Cell viability was assessed using trypan blue. Cells were plated at 10 cells/μl in 24-well (0.5 ml/well) uncoated plates (Nunclon) in serum-free media containing either FGF2 (10 ng/ml)+heparin (2 (g/ml) or FGF2+heparin+LIF (1000 U/ml). Self-renewal of neural stem cells that generated primary sphere colonies (selecting mainly floating colonies after 7 days in vitro) were routinely subcloned by mechanically dissociating a single colony in 0.2 ml of serum-free media, in identical growth factor conditions as the primary culture, and plated in uncoated 96-well (0.2 ml/well) plates (Nunclon). The number of new secondary colonies was quantified after a further 6–7 days in vitro. Neural stem cell colonies from the adult forebrain subependyma were isolated as previously described (Chiasson et al., 1999) and cultured as above.

LIF: leukemia inhibitory factor, cytokine added at 1000 U/ml
primary colony formation, factor alone (ES cells): floating sphere-like colonies were generated | estimated frequency of sphere colony forming cells (ES cells; limiting dilution assay in the presence of LIF (1000 U/ml)): ~0.2% | secondary neural stem cell colony formation [1]: not sufficient for secondary colony formation | E9.5 neural stem cell proliferation, LIF alone ([2]; LIF alone): not sufficient for E9.5 neural stem cell proliferation | numbers of neural stem cells forming sphere colonies, with FGF2 ([2]; LIF in the presence of FGF2, compared to FGF2 alone): can enhance the numbers of FGF-responsive neural stem cells

EGF: growth factor, 20 ng/ml; Upstate Biotech (NSDSECPLSHDGYCLHDGVCMYIEALDKYACNCVVGYIGERCQYRDLKWWELR; Epidermal growth factor; UniProt P01133 971-1023, looked up)
primary colony formation, factor alone (ES cells): no cell colonies were generated | secondary neural stem cell colony formation [1]: not observed
